According to US20230183647A1, “METHOD FOR GENERATING FUNCTIONAL SKELETAL MUSCLE FIBERS INNERVATED BY MOTONEURONS” (ASSOCIATION FRANCAISE CONTRE LES MYOPATHIES (AFM), priority 2020, published 2023):
“Also recorded” adds a separate entry of the source.

Key:
[1] = tested on: hiPSC-derived innervated myofibers; assay: Transient Calcium influx (Calcium handling) in hiPSC-derived innervated myofibers after drug addition; assay type: cell-based, human; conditions: for Calcium release: cells at D45, single addition
Procedure: A-D. We measured the transient Calcium influx in control myofibers prior to drug addition (0 hr) and at different time points after a single addition of different concentrations of each drug. Violin plots display the number of influx per minute and per fiber (n>50). Statistical significance was determined using ANOVA multiple comparison test followed by Brown-Forsythe and Welch correction and comparison to the basal condition (prior to drug addition). A. 0; 2 and 20 μM for Glutamate, B. 0; 1 and 10 μM for Salbutamol. C. 0; 0.5 and 1 mM for Carisoprodol. D. 0; 10 and 100 μM for Mexiletine.
Calcium transients were measured after addition to the cell culture medium of FLUO-8AM fluorescent Ca^2+ indicator (AAT Bioquest). Cells were incubated for 30 min at 37° c in DM+I medium containing 5 μM Fluo8-AM and 0.04% Pluronic acid before imaging on a Fast Imaging Observer system (Axio Observer.Z1/7; Zeiss) with a 10× lens (10×/0.30 M27 DIC I EC Plan-Neofluar; […]). Fluorescence was excited at 488 nm and emission collected at >509 nm. Images were acquired as time series. Different regions were tracked to record the fluorescent intensity at a 10× magnification during 30 seconds and an interval of 200,0 ms corresponding to 151 frames. Analysis was performed using the Zen pro software (Zeiss). ROI was created for selected fibers then intensity mean for each fiber was exported and Calcium transients were calculated by counting the number of peaks intensity for each graph.
For drug treatment, cells were seeded and differentiated in 6 to 12-well plates for 45 days. We tested the activity of Mexiletine (M2727, Sigma Aldrich, 10; 100 μM diluted in methanol), Carisoprodol (C8759, Sigma Aldrich, […]; […] diluted in ethanol), Salbutamol (S8260, Sigma Aldrich, 1 μM; 10 μM, diliuted in methanol) and L-Glutamic acid potassium salt monohydrate (G1501, Sigma Aldrich, 2 μM; 20 μM diluted in H2O) added at 0.1% in the culture medium on fiber contractions. Cell contractions were captured as described for Calcium handling measurements.
To evaluate the potential application of hiPSC-derived innervated myofibers as a preclinical model for drug testing, we tested the response to different classes of pharmaceutical agents by real time video microscopy and Calcium handling analysis. Cells at D45 were treated for different durations with different concentrations of each molecule at (FIG. 8A-D).

hiPSC-derived myofibers = assay type: cell-based, human

CCCC(C)(COC(N)=O)COC(=O)NC(C)C (centres unmarked) [Carisoprodol]
muscle contraction (Calcium influx) ([1]; 0.5 to 1 mM, cells at D45): reduces muscle contraction 3 to 4 hrs

N[C@@H](CCC(=O)[O-])C(=O)[O-].O.[K+].[K+] [Glutamate, L-Glutamic acid potassium salt monohydrate]
Calcium release ([1]; 2 μM): did not observe any difference | Calcium release ([1]; 20 μM): increased activity 20 to 30 minutes

Cc1cccc(C)c1OCC(C)N (centres unmarked) [Mexiletine]
Calcium handling ([1]; 10 μM, cells at D45): decrease in Calcium handling 2 hrs | Calcium handling ([1]; 100 μM, cells at D45): sharp decrease 1 to 2 hrs

CC(C)(C)NCC(O)c1ccc(O)c(CO)c1 (centres unmarked) [Salbutamol]
Ca2+ handling ([1]; 1 μM and 10 μM, cells at D45): decreases Ca^2+ handling as early as 4 hours

NC1=N[C@H](O)[C@H]2[C@H]3O[C@]4(O)O[C@@H]([C@@H](O)[C@@]2(N1)[C@@H]4O)[C@]3(O)CO [Tetrodotoxin]
cell contraction after drug addition (mean number of contractions) (hiPSC-derived myofibers): irreversibly blocked; also recorded: irreversibly inhibits cell contraction

Alpha Bungarotoxin
cell contraction after drug addition (mean number of contractions) (hiPSC-derived myofibers): irreversibly blocked; also recorded: irreversibly inhibits cell contraction
